Results reported in paper PMC3914206.

Columns and labels:
[1] = molecular target: T1, panel of 442 kinases (Homo sapiens, UniProt O94804); format: binding; conditions: Compound Concentration 10 µM
T1 construct: purchased KINOMEscan
Text: (§1) We assessed the selectivity of members of this scaffold using the KINOMEscan methodology across a near comprehensive panel of 442 kinases [[18,27]].

[2] = molecular target: T2, panel of 442 kinases (Homo sapiens, UniProt Q59H18); format: binding; conditions: kinase TNNI3K; compound concentration 10 µM
T2 construct: purchased KINOMEscan
T2 sequence (Q59H18 1-835): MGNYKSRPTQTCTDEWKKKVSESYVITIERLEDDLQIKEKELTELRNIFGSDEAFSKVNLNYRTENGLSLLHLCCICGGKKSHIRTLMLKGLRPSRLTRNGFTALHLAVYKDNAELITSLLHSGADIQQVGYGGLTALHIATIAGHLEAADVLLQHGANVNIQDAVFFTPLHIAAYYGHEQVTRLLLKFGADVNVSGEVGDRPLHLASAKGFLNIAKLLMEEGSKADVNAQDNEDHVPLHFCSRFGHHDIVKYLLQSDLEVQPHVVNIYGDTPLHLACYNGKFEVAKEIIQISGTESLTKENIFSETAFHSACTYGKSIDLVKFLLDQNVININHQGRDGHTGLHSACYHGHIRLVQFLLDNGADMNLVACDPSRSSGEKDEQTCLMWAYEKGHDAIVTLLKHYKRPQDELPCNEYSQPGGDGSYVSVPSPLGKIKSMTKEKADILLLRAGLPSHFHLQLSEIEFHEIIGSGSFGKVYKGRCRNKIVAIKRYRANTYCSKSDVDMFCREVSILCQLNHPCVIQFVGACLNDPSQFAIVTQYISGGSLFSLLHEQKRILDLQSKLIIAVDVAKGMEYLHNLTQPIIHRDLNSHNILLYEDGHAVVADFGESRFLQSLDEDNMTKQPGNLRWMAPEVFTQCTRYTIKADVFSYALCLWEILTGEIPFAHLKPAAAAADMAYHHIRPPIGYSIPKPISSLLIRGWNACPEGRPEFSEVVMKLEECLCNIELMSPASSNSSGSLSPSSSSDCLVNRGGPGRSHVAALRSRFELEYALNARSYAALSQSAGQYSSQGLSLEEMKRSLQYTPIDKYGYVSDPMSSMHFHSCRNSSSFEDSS
Text: as §1

T1 sequence (O94804 whole entry): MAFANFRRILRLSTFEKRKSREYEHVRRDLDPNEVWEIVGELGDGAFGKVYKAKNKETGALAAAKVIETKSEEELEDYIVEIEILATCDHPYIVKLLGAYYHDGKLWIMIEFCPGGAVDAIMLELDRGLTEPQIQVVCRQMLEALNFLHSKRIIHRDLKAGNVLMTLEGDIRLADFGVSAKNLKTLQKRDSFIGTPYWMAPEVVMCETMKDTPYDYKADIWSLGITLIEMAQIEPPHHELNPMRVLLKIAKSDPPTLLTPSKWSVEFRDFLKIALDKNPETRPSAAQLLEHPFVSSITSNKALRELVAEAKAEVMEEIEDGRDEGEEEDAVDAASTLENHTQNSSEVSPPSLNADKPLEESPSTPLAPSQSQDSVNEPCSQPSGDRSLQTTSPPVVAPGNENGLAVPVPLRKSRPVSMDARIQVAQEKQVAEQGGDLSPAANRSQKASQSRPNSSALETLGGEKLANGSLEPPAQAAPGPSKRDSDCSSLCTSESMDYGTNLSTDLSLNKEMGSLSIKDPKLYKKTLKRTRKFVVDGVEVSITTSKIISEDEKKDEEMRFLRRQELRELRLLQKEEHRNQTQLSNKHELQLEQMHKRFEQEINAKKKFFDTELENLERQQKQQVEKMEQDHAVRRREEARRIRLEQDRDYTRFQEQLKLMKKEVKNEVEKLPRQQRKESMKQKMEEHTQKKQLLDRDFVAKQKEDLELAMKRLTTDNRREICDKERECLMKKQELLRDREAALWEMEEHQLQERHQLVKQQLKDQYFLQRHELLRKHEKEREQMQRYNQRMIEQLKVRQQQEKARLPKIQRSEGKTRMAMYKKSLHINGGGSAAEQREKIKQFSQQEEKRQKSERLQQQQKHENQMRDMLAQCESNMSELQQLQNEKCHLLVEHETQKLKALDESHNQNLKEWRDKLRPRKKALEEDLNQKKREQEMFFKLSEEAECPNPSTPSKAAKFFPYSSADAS

SMILES | KINOMEscan: LOK [1] | % Ctrl, TNNI3K [2]
COc1cc(C(=O)N2CCC(N3CCN(C)CC3)CC2)ccc1Nc1ncc2c(n1)N(C)c1ccccc1C(=O)N2C [15 (LRRK2-IN-1)] | 100 | 100 % Ctrl
COc1cc(C(=O)N2CCC(N3CCN(C)CC3)CC2)ccc1Nc1ncc2c(n1)N1CCc3cccc(c31)C(=O)N2C [Compound 24] | 70 | 73 % Ctrl
COc1cc(C(=O)N2CCC(N3CCN(C)CC3)CC2)ccc1Nc1ncc2c(n1)N(C1CCCC1)c1ccccc1C(=O)N2C [Compound 25, 11-cyclopentyl-2-((2-methoxy-4-(4-(4-methylpiperazin-1-yl)piperidine-1-carbonyl)phenyl)amino)-5-methyl-5H-benzo[e]pyrimido[5,4-b][1,4]diazepin-6(11H)-one] | 100 | 82 % Ctrl
CCOc1cc(C(=O)N2CCC(N3CCN(C)CC3)CC2)ccc1Nc1ncc2c(n1)N(C1CCCC1)c1ccccc1C(=O)N2C [Compound 26] | 100 | 89 % Ctrl
